Source: ChEMBL document CHEMBL4387706, “Discovery of Novel Spiroindoline Derivatives as Selective Tankyrase Inhibitors” (J Med Chem, 2019)

What was measured:
[1] = target: Prostaglandin G/H synthase 2 (Homo sapiens) (UniProt P35354); experiment: Inhibition of human recombinant COX2 expressed in Sf21 cells at 10 uM using arachidonic acid as substrate preincubated for 15 mins followed by substrate addition and measured after 3 mins by ampliflu red dye-based spectrofluorimetric method relative to control
[2] = target: GABA-A receptor; anion channel (Rattus norvegicus) (UniProt O09028+P15431+P18506+P18508+P19969+P20236+P23574+P23576+P28471+P28473+P30191+P62813+P63079+P63138+Q91ZM7+Q9ES14); experiment: Displacement of [3H]flunitrazepam from GABAA receptor in Wistar rat brain at 10 uM measured after 60 mins by scintillation counting method relative to control; type: tissue-based
[3] = target: Glucocorticoid receptor (Homo sapiens) (UniProt P04150); experiment: Displacement of [3H]dexamethasone from full-length recombinant human glucocorticoid receptor expressed in insect cells at 10 uM measured after 24 hrs by scintillation counting method relative to control
[4] = Toxicity in mouse xenografted with human COLO320DM cells assessed as body weight loss at 300 mg/kg, ip administered twice daily for 11 days; type: organism-based; settings: in vivo, 264 h
[5] = target: Cholecystokinin receptor type A (Homo sapiens) (UniProt P32238); experiment: Displacement of [125I]CCK8 from full-length recombinant human CCK1 receptor expressed in human 1321N1 cells at 10 uM measured after 3 hrs by scintillation counting method relative to control; type: cell-based
[6] = Permeability of the compound by PAMPA; type: ADME; settings: read-out: permeability
[7] = target: T1, Poly [ADP-ribose] polymerase tankyrase-1 (Homo sapiens, UniProt O95271)
T1 sequence (O95271 whole entry): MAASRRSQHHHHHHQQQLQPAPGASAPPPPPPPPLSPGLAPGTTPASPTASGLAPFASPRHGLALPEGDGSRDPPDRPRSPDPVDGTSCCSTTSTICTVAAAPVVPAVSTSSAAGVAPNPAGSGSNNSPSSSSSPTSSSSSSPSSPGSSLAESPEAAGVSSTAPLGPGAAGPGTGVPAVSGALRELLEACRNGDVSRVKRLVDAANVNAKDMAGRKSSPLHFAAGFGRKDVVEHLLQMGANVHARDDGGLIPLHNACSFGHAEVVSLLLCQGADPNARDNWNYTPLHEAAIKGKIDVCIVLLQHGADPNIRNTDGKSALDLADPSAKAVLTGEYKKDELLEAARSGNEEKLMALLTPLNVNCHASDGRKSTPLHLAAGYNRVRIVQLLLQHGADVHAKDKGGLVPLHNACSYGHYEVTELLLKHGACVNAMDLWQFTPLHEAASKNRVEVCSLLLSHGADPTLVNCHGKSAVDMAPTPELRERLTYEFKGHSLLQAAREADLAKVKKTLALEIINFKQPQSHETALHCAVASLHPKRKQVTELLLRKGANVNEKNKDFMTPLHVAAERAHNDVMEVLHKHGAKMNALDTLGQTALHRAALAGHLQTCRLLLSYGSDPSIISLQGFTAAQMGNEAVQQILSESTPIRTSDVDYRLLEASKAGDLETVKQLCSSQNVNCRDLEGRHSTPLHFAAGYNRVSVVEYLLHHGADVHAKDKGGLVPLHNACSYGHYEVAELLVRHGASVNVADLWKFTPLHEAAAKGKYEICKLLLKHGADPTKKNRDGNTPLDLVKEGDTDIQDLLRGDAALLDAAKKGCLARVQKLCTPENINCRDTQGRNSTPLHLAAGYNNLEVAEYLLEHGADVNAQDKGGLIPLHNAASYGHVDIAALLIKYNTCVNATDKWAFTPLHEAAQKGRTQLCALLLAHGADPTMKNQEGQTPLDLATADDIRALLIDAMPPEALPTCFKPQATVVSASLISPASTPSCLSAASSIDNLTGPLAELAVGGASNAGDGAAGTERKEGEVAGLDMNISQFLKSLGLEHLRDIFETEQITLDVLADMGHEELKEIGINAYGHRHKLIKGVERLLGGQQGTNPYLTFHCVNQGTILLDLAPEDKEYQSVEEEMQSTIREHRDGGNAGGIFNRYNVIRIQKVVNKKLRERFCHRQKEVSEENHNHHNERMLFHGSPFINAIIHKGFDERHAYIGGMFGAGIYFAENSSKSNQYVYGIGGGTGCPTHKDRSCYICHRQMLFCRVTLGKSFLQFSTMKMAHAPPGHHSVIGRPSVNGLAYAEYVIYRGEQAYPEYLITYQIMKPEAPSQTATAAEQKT
Description: Inhibition of recombinant human N-terminal TEV cleavage site-fused/FLAG-poly his-tagged TNKS SAM-PARP domain (1024 to 1327 residues) expressed in Escherichia coli assessed as reduction in auto-PARylation preincubated for 10 mins followed by biotinylated-NAD+ addition and measured after 45 mins by ELISA

Cholecystokinin receptor type A (Homo sapiens), sequence (P32238 whole entry): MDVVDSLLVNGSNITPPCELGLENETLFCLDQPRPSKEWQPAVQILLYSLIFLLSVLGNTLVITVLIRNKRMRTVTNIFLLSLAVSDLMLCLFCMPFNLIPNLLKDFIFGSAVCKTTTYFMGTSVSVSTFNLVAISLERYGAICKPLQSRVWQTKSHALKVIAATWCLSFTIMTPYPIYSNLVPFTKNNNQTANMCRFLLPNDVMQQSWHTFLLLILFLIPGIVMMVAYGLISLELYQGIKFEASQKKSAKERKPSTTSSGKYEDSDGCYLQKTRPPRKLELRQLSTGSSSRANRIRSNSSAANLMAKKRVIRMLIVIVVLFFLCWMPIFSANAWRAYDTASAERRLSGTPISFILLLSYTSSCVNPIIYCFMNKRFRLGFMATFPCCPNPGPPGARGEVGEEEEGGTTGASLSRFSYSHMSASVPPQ
Prostaglandin G/H synthase 2 (Homo sapiens), sequence (P35354 whole entry): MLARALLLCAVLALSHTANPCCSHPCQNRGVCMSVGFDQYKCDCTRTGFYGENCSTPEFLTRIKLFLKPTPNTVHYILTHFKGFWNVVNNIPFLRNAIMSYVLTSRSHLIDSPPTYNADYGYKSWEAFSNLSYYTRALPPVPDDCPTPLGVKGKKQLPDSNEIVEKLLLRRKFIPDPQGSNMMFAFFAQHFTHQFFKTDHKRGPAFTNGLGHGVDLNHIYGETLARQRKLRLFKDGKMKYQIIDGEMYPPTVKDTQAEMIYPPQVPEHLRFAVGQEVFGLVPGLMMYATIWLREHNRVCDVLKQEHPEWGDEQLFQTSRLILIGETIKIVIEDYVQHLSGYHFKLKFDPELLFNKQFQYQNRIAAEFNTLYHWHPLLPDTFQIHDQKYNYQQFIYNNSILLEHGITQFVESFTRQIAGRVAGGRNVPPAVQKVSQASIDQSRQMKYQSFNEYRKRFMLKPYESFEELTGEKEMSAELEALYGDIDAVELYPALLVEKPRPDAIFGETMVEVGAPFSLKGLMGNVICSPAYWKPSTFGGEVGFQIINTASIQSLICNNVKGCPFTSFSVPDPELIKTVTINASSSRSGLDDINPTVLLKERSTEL
Glucocorticoid receptor (Homo sapiens), sequence (P04150 whole entry): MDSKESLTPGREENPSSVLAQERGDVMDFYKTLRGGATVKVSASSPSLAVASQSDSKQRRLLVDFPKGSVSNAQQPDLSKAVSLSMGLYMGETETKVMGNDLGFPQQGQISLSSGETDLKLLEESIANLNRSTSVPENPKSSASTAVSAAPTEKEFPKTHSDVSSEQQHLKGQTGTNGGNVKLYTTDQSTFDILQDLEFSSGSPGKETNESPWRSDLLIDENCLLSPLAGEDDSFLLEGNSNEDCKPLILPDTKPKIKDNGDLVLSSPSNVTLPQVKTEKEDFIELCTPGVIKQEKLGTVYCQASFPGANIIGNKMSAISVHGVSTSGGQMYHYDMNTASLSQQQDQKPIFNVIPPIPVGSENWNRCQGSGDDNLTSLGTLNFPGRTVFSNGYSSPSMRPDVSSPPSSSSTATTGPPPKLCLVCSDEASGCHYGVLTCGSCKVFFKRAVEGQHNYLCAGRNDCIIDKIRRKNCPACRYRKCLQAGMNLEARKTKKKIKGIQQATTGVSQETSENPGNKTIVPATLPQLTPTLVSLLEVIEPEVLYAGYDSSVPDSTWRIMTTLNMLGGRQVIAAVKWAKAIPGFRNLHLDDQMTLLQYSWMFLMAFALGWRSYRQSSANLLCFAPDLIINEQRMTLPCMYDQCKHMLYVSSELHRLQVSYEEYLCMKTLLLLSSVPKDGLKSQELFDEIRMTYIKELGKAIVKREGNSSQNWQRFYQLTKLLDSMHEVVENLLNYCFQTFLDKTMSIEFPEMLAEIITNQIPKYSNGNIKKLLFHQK

Row | Papp [6] [×10⁻⁶ cm/s] | IC50 [7] [nM] | SMILES | inhibition [1] [%] | inhibition [2] [%] | inhibition [3] [%] | Activity [4] | inhibition [5] [%]
1 |  |  | O=c1[nH]c(N2CCC3(CC2)CN(CCO)c2cc(F)cc(F)c23)nc2c1CCCC2 | > 20 | > 20 | > 20 | Toxic | > 20
2 | 0.34 | 20.5 | COc1ccccc1N1CCN(c2nc3c(c(=O)[nH]2)CCCC3)CC1 |  |  |  |  | 
